Reference: ChEMBL document CHEMBL3352653, “Synthesis of pyrazolo[4,3-a]phenanthridines, a new scaffold for Pim kinase inhibition” (Bioorg Med Chem, 2014)

Tests used:
[1] = target: T1, Serine/threonine-protein kinase pim-3 (Homo sapiens, UniProt Q86V86); experiment: Inhibition of full-length human PIM3 using RSRHSSYPAGT as substrate assessed as residual kinase activity at 1 uM after 30 mins in presence of [gamma-33P]ATP
[2] = target: Serine/threonine-protein kinase pim-2 (Homo sapiens) (UniProt Q9P1W9); experiment: Inhibition of full-length human PIM2 using RSRHSSYPAGT as substrate assessed as residual kinase activity at 1 uM after 30 mins in presence of [gamma-33P]ATP
LNCaP = experiment: Antiproliferative activity against human LNCAP cells at 10 uM after 72 hrs by MTS assay; format: functional
[3] = target: T2, Serine/threonine-protein kinase pim-1 (Homo sapiens, UniProt P11309); experiment: Inhibition of full-length human PIM1 using RSRHSSYPAGT as substrate assessed as residual kinase activity after 30 mins in presence of [gamma-33P]ATP
Target sequence in this assay (P11309 whole entry): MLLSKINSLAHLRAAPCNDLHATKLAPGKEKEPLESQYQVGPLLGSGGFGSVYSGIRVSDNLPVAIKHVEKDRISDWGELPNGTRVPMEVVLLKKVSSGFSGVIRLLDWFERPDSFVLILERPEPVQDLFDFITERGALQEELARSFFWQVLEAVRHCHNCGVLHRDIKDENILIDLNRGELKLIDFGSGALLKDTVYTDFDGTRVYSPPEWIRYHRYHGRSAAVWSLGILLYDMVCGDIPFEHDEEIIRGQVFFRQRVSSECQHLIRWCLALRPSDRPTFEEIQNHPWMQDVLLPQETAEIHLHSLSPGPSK

[4] = target: T1, Serine/threonine-protein kinase pim-3; experiment: Inhibition of full-length human PIM3 using RSRHSSYPAGT as substrate assessed as residual kinase activity at 10 uM after 30 mins in presence of [gamma-33P]ATP
[5] = target: T2, Serine/threonine-protein kinase pim-1; experiment: Inhibition of full-length human PIM1 using RSRHSSYPAGT as substrate assessed as residual kinase activity at 1 uM after 30 mins in presence of [gamma-33P]ATP
Target sequence in this assay (P11309 whole entry, looked up): as the sequence (P11309 whole entry) above

[6] = target: T1, Serine/threonine-protein kinase pim-3; experiment: Inhibition of full-length human PIM3 using RSRHSSYPAGT as substrate assessed as residual kinase activity after 30 mins in presence of [gamma-33P]ATP
[7] = target: T2, Serine/threonine-protein kinase pim-1; experiment: Inhibition of full-length human PIM1 using RSRHSSYPAGT as substrate assessed as residual kinase activity at 10 uM after 30 mins in presence of [gamma-33P]ATP
Target sequence in this assay (P11309 whole entry, looked up): as the sequence (P11309 whole entry) above

[8] = Antiproliferative activity against human PC3 cells at 10 uM after 72 hrs by MTS assay; format: functional; details: PC-3, 72 h
[9] = target: Serine/threonine-protein kinase pim-2 (Homo sapiens) (UniProt Q9P1W9); experiment: Inhibition of full-length human PIM2 using RSRHSSYPAGT as substrate assessed as residual kinase activity at 10 uM after 30 mins in presence of [gamma-33P]ATP
[10] = Antiproliferative activity against human PC3 cells after 72 hrs by MTS assay; format: functional, cell-based; details: PC-3, 72 h

Serine/threonine-protein kinase pim-2 (Homo sapiens), sequence (Q9P1W9 whole entry, looked up): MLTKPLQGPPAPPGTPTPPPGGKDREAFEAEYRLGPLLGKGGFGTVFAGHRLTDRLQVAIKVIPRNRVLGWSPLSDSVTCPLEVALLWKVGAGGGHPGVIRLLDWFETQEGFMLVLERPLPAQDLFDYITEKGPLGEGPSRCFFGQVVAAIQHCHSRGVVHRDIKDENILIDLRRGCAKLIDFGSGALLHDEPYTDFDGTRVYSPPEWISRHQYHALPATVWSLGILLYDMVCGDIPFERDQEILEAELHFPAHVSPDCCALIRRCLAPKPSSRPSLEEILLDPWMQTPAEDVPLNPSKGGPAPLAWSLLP

Row | Activity [1] [%] | Activity [2] [%] | IC50 [3] [nM] | Activity [4] [%] | Activity [5] [%] | IC50 [6] [nM] | Activity [7] [%] | Activity [9] [%] | SMILES | inhibition at 10 µM (LNCaP) [%] | inhibition at 10 µM [8] [%] | IC50 [10] [nM]
1 | 6 | 46 | 70 | 0.9 | 16 | 20 | 2.2 | 8.1 | O=[N+]([O-])c1cc2[nH]ncc2c2c1ncc1ccccc12 | 54 | 68 | 2460
2 | 18.9 | 92 |  | 7 | 53 | 400 | 15.8 | 54 | O=[N+]([O-])c1cc2[nH]ncc2c2c1ncc1cc3c(cc12)OCO3 | 54 | 60 | 5000
3 | 60 | 100 |  | 16.5 | 96 |  | 35 | 84 | COc1ccc2c(cnc3c(N)cc4[nH]ncc4c32)c1 |  |  | 
4 | 14 | 84 |  | 6.7 | 46 | 169 | 19 | 66 | O=[N+]([O-])c1cc2[nH]ncc2c2c1ncc1c(F)cccc12 | 46 | 37 | 
5 | 8 | 64 | 120 | 5.5 | 20 | 140 | 15 | 55 | COc1ccc2c(cnc3c([N+](=O)[O-])cc4[nH]ncc4c32)c1 | 40 | 73 | 1100
6 | 98 | 84.6 |  | 47 | 44 |  | 11 | 38 | c1ccc2c(c1)cnc1ccc3[nH]ncc3c12 |  |  | 
7 | 50 | 96 |  | 10.5 | 88 |  | 18 | 57 | Nc1cc2[nH]ncc2c2c1ncc1ccc(Cl)cc12 |  |  | 
8 | 8.9 | 83 |  | 4 | 28 | 200 | 9 | 47 | O=[N+]([O-])c1cc2[nH]ncc2c2c1ncc1ccc(Cl)cc12 | 31 | 75 | 3000
9 | 55 | 86 |  | 24 | 55 |  | 17 | 43 | Nc1cc2[nH]ncc2c2c1ncc1ccccc12 |  |  | 
10 | 42 | 110 |  | 7.9 | 90 |  | 16 | 76 | Nc1cc2[nH]ncc2c2c1ncc1c(F)cccc12 |  |  | 
